In patent publication US6423701B1, “Water soluble amine esters of testosterone for intranasal administration” (University of Kentucky, priority 1996, dated 2002):

Assay: Nasal absorption of TSDG in rats: plasma levels after intranasal and intravenous administration, HPLC
Assay type: in vivo
Conditions: male, Sprague-Dawley, rat
Procedure: Male Sprague-Dawley rats weighing 250-275 gm were used. Animals were fasted overnight before the experiment, but water was given ad libitum. All surgical procedures were performed under sodium pentobarbital anesthesia (40 mg/kg i.p.). An incision was made in the neck, and the trachea was cannulated with a polyethylene tube. A closed tube was inserted through the esophagus to the posterior part of the nasal cavity. The nasopalatine passage was closed with an adhesive agent to prevent drainage of the drug from the nasal cavity to the mouth.
Blood samples were collected from a cannula inserted into the femoral artery. For intravenous administration, the jugular vein was cannulated for administering the dose.
For intravenous administration, the same dose of the drug was injected through the jugular vein.
Blood samples were collected at 0, 5, 10, 20, 30, 40, 60, 90, 120, 150, and 180 minutes. After immediate centrifugation (3000×g for 3 min), the plasma was separated. The animal was sacrificed after the last sample was obtained, and the samples were then analyzed by HPLC, using the method of Hsyu et al. (Pharm. Res. 11:156-159, 1994). Briefly, plasma concentrations of testosterone free base were determined via a HPLC protocol which included solid-phase extraction, separation on a reverse-phase cyano column, and UV detection at 305 nm.

**Q.** Which results are given for `C[C@]12CC[C@H]3[C@@H](CCC4=CC(=O)CC[C@@]43C)[C@@H]1CC[C@@H]2O` [TS, 17β-hydroxyandrost-4-en-3-one]?
**A.** AUC (inhaled or intranasal, intranasal, dose 25 mg/kg): 1830 ng·h/mL; AUC (inhaled or intranasal, intranasal, dose 50 mg/kg): 3490 ng·h/mL; AUC (intravenous, dose 25 mg/kg): 1770 ng·h/mL; AUC (intravenous, dose 50 mg/kg): 3780 ng·h/mL
